Measurements from PubChem BioAssay (NCI).
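Step 1: Grow cells in 96-well plates. Step 2: Expose to compound for 48 hours at 5 concentrations. Step 3: Interpolate endpoints linearly; if unreached, use highest concentration. TGI marks complete inhibition of growth.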

Columns and labels:
Assay in all cases: growth of human tumour cells (NCI), 48 h
NCI-H226 lung = tested on: NCI-H226 lung
TK-10 renal = tested on: TK-10 renal
NCI/ADR-RES ovarian = tested on: NCI/ADR-RES ovarian
UACC-257 melanoma = tested on: UACC-257 melanoma
OVCAR-4 ovarian = tested on: OVCAR-4 ovarian
COLO 205 colon = tested on: COLO 205 colon
SK-MEL-5 melanoma = tested on: SK-MEL-5 melanoma
SW-620 colon = tested on: SW-620 colon
HCC-2998 colon = tested on: HCC-2998 colon
NCI-H522 lung = tested on: NCI-H522 lung
SF-539 CNS = tested on: SF-539 CNS
T-47D breast = tested on: T-47D breast
DU-145 prostate = tested on: DU-145 prostate
K-562 leukemia = tested on: K-562 leukemia
HL-60(TB) leukemia = tested on: HL-60(TB) leukemia

SMILES | TGI (NCI-H226 lung) | TGI (TK-10 renal) | TGI (NCI/ADR-RES ovarian) | TGI (UACC-257 melanoma) | TGI (OVCAR-4 ovarian) | TGI (COLO 205 colon) | TGI (SK-MEL-5 melanoma) | TGI (SW-620 colon) | TGI (HCC-2998 colon) | TGI (NCI-H522 lung) | TGI (SF-539 CNS) | TGI (T-47D breast) | TGI (DU-145 prostate) | TGI (K-562 leukemia) | TGI (HL-60(TB) leukemia)
COC(=O)C12CCC(C(=O)OC)(Cc3c(c4ccccc4n3S(=O)(=O)c3ccccc3)C1)C2=O (centres undefined) | > 100 µM | > 100 µM | > 100 µM | > 100 µM | > 100 µM | > 100 µM | > 100 µM | > 100 µM | > 100 µM | 97.1 µM | > 67.3 µM | > 100 µM | > 100 µM | > 100 µM | –
CN1CCc2c(sc3nc(Nc4ccccc4)n(N)c(=O)c23)C1 | > 100 µM | > 100 µM | > 100 µM | > 100 µM | – | > 100 µM | > 100 µM | – | – | – | > 100 µM | > 100 µM | > 100 µM | > 100 µM | > 100 µM
CCCS(=O)(=O)O | > 100 µM | > 100 µM | > 100 µM | > 100 µM | > 100 µM | > 100 µM | > 100 µM | > 100 µM | – | > 100 µM | > 100 µM | > 100 µM | > 100 µM | > 100 µM | > 100 µM
O=c1oc2ncccc2n1Cc1ccc([N+](=O)[O-])cc1 | > 100 µM | > 100 µM | > 100 µM | > 100 µM | > 100 µM | > 100 µM | > 100 µM | > 100 µM | – | > 100 µM | > 100 µM | > 100 µM | > 100 µM | > 100 µM | > 100 µM
CC(=O)OCC1C(C(C)OC(C)=O)CCC2C1CCC1(C)C(OC(C)=O)CCC21 (centres undefined) | 33.6 µM | > 100 µM | 44.9 µM | 31.9 µM | 39.6 µM | – | 30.6 µM | 38.2 µM | 33.5 µM | 37.5 µM | 32.6 µM | 65.7 µM | > 100 µM | 36.8 µM | 52.6 µM
CN(Cc1cnc2nc(N)nc(N)c2n1)c1ccc(C(=O)NC(CCS(=O)(=O)O)C(=O)O)cc1 (centres undefined) | > 100 µM | > 100 µM | > 100 µM | > 100 µM | > 100 µM | > 100 µM | > 100 µM | > 100 µM | > 100 µM | > 100 µM | > 100 µM | > 100 µM | – | – | 1.62 µM
C=CCN1CCC(OC(=O)C(O)(/C=C\CC)C2CCCC2)CC1 (centres undefined) | > 100 µM | > 100 µM | > 100 µM | > 100 µM | > 100 µM | > 100 µM | > 100 µM | – | – | > 100 µM | > 100 µM | > 100 µM | > 100 µM | > 100 µM | > 100 µM
c1ccc(Cc2cccc3cc(-c4ccc(-c5ccccc5)cc4)[nH]c23)cc1 | > 100 µM | > 100 µM | > 100 µM | > 100 µM | > 100 µM | > 100 µM | > 100 µM | > 100 µM | > 100 µM | > 100 µM | > 100 µM | > 100 µM | > 100 µM | – | > 100 µM
C=C1c2nc3ccccc3n2C=C(c2ccc(Cl)cc2)N1c1ccc(OCCN2CCOCC2)cc1 | > 100 µM | > 100 µM | > 100 µM | 90.3 µM | > 100 µM | 98.6 µM | 71.5 µM | > 100 µM | > 100 µM | – | > 100 µM | > 100 µM | > 100 µM | > 100 µM | 35 µM
C=C1CC(OC(C)=O)/C=C(/C)CCC(C(C)(C)O)CC1O (centres undefined) | > 100 µM | > 100 µM | > 100 µM | > 100 µM | > 100 µM | > 100 µM | > 100 µM | > 100 µM | > 100 µM | > 100 µM | > 100 µM | > 100 µM | > 100 µM | – | > 100 µM
CCCCCCc1nn2c(-c3ccc(C)cc3)nnc2s1 | – | > 100 µM | > 100 µM | > 100 µM | > 100 µM | > 100 µM | > 100 µM | > 100 µM | – | > 100 µM | > 100 µM | > 100 µM | > 100 µM | > 100 µM | –
CC1=C(C)C(=O)OC(C(C)(O)C2(O)CCC3(O)C4CC(Cl)C5(O)C(O)C=CC(=O)C5(C)C4CCC32C)C1 (centres undefined) | > 100 µM | > 100 µM | – | > 100 µM | > 100 µM | 42.8 µM | – | 59.1 µM | > 100 µM | > 100 µM | > 100 µM | > 100 µM | > 100 µM | > 100 µM | 9.04 µM
N#CC12COC3(CCCCC3C1(C#N)C#N)OC2=N (centres undefined) | 71.2 µM | 31.6 µM | > 100 µM | 34.1 µM | – | 19.2 µM | 23.5 µM | > 100 µM | – | – | 27.5 µM | 26.7 µM | 28.7 µM | > 100 µM | –
O=C(N/N=C(/COc1cccc(Cl)c1)N=Cc1ccncc1)c1ccncc1 | > 100 µM | > 100 µM | > 100 µM | > 100 µM | > 100 µM | > 100 µM | – | > 100 µM | > 100 µM | > 100 µM | > 100 µM | > 100 µM | > 100 µM | > 100 µM | > 100 µM
NNC(N)=Nc1cccc2ccccc12 | > 100 µM | > 100 µM | > 100 µM | > 100 µM | > 100 µM | > 100 µM | > 100 µM | > 100 µM | > 100 µM | – | > 100 µM | > 100 µM | > 100 µM | > 100 µM | > 100 µM
CCOC(=O)C(Cc1ccc2c(c1)CCC2)(Cc1ccc2c(c1)CCC2)C(=O)OCC | – | > 100 µM | > 100 µM | > 100 µM | > 100 µM | – | > 100 µM | > 100 µM | > 100 µM | > 100 µM | > 100 µM | > 100 µM | > 100 µM | > 100 µM | > 100 µM
CN(c1c(Cl)cccc1Cl)S(=O)(=O)c1ccccc1[N+](=O)[O-] | > 100 µM | > 100 µM | > 100 µM | > 100 µM | > 100 µM | > 100 µM | – | > 100 µM | > 100 µM | > 100 µM | > 100 µM | > 100 µM | > 100 µM | – | –
